As a reminder, the Kb is the affinity of an antagonist, worked out from how it opposes an agonist.

Where a chain is given by its changes, count along the chain named.

The text below walks through data of patent US11453660B2, “Androgen receptor and glucocorticoid receptor modulators” (ONCOSTELLAE, S.L., priority 2017, dated 2022).

One experiment addresses T1, Rat Androgen Receptor (Rattus norvegicus, UniProt P15207).
T1 construct: purchased Life Technologies A15880
T1 sequence (P15207 646-902 limits assumed): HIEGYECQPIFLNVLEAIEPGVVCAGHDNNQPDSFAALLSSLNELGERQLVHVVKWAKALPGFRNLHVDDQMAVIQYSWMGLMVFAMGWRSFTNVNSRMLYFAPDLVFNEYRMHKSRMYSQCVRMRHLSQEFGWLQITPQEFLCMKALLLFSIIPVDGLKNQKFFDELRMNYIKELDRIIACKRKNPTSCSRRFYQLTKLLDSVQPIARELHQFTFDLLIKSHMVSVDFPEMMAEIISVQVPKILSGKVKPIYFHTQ
As to the kind of experiment: Rat Androgen Receptor Binding (polarscreen AR competitor assay, fluorescence polarization). The conditions noted are these: displacement of Fluormone AL Green, 4 hours at RT, read-out: AR rat-fluorimetric. In short, it runs like this:
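Fluorescence-polarization competition of Fluormone AL Green binding to rat androgen receptor; compounds screened in duplicate at 1 and 10 μM, 4 h at RT, read at λexc 485/λem 535 nm. IC50 from 1:10 dilution series, 10 μM to 0.1 nM, in 1× buffer.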
Background: Fluorescence polarisation rises when a labelled molecule tumbles more slowly, as on binding a larger partner.

The target of a further experiment is T2, human androgen receptor (Homo sapiens, UniProt P10275, T878A).
T2 construct: endogenously expressed human androgen receptor using the LnCap prostate cancer cell line; endogenous in cells; host or cells: LNCaP prostate cancer cell line (whole cells)
T2 sequence (P10275 1-920 T878A): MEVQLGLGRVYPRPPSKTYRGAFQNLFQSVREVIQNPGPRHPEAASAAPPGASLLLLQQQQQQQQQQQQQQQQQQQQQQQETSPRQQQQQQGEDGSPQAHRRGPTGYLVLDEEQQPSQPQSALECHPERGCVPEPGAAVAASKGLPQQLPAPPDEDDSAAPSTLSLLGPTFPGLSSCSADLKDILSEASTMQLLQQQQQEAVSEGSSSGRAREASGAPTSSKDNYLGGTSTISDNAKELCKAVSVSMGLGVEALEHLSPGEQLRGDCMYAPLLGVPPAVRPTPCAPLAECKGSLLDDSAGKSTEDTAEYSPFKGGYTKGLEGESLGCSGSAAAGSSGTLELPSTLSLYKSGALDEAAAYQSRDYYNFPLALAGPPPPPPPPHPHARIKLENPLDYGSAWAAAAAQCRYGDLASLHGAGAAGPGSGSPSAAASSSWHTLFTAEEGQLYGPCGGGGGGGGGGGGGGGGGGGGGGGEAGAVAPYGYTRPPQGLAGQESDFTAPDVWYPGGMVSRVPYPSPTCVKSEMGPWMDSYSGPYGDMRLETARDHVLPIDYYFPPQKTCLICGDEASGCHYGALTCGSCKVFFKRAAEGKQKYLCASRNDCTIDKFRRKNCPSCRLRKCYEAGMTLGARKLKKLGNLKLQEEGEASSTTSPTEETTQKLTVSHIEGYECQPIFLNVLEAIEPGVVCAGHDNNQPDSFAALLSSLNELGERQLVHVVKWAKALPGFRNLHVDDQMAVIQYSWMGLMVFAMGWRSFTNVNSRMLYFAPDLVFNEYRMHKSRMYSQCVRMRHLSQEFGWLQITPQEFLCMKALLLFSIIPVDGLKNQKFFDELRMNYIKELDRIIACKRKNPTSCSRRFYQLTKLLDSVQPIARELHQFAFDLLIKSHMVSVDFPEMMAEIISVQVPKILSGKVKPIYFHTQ
As to the kind of experiment: Human Androgen Receptor Binding (radioligand binding, LnCap prostate cancer cell line). The conditions noted are these: LnCap cells, displacement of [^3H]-methyltrienolone, 2 hours at 37° C.; read-out: AR LNCaP. In short, it runs like this:
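Whole-cell displacement of [3H]-methyltrienolone from endogenous AR (T878A) in LnCap cells, in RPMI with 0.1% BSA and triamcinolone acetonide. Compounds 10 μM to 0.1 nM in 1:10 steps, 2 h at 37 °C; cells washed, SDS-lysed, bound radioactivity by scintillation counting for IC50.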

In the next experiment the target is T3, AR-Receptor (Homo sapiens, UniProt P10275).
T3 sequence (P10275 1-920 Q868H): T2 sequence (P10275 1-920 T878A) with Q868H, A878T
The experiment can be described thus: Functional Assay AR-Receptor (MDA-MB-453 cells, luciferase). The class given is cell-based. The conditions noted are these: antagonist effect in the presence of DHT 1 nM, 24 h, luciferase luminescence, read-out: AR antag KB. The procedure:
Functional Assay AR-Receptor
MDA-MB-453 cells were cultured in DMEM (ATCC, ref 30-2002), 10% FBS, 1% penicillin, 1% streptomycin, 75 μg/ml gentamycin.
The day before performing assay, the cells were trypsinized and seeded in a 384-well plate (Greiner, ref 781098) (8000 cells/well) in 50 μl of complete culture medium. Cells were stores at 37° C. in a 5% CO2 atmosphere overnight.
The medium was replaced by 50 μl complete growth medium with 0.1% FBS. Compounds were dispensed with Echo 550 (Labcyte) and incubated for 24 h at 37° C. in a 5% CO2 atmosphere. Antagonist effect was measured in the presence of DHT 1 nM.
After incubation, assay medium removed and 20 μl of 1× Promega lysis buffer were added to each well. The plate was incubated 15 minutes at RT and quick-frozen to −80° C. and the thaw to room temperature. 50 μl of luciferase substrate (E4550, Promega) were added to each well and luminescence (integration time 1000 msec) was read in an EnSpire multilabel reader (Perkin Elmer).

`CC(=O)C1=C(C)NC(C)=C(C(=O)OCc2ccncc2)C1c1csc2ccccc12` (centres unmarked) [Example B12, Pyridin-4-ylmethyl 5-acetyl-4-(benzo[b]thiophen-3-yl)-2,6-dimethyl-1,4-dihydropyridine-3-carboxylate]: the IC50 on Rat Androgen Receptor and on human androgen receptor was not below 1000 nM each time. The Kb at AR-Receptor is less than 100 nM.
On to `CC(=O)C1=C(C)NC(C)=C(C(=O)OCC2CCCCC2)C1c1csc2ccccc12` (centres unmarked) [Example B21, Cyclohexylmethyl 5-acetyl-4-(benzo[b]thiophen-3-yl)-2,6-dimethyl-1,4-dihydropyridine-3-carboxylate], for which the IC50 is 100 to 1000 nM on Rat Androgen Receptor and not below 1000 nM at human androgen receptor. In addition, the Kb at AR-Receptor fell in the range of 100 to 1000 nM.
For the compound `CC(=O)C1=C(C)NC(C)=C(C(=O)OCCc2ccccc2)C1c1csc2ccccc12` (centres unmarked) [Example C10, Phenethyl 5-acetyl-4-(benzo[b]thiophen-3-yl)-2,6-dimethyl-1,4-dihydropyridine-3-carboxylate], the IC50 at Rat Androgen Receptor was not below 1000 nM. Moreover, the Kb on AR-Receptor lay within 100 to 1000 nM.
The like results for `CC(=O)C1=C(C)NC(C)=C(C(=O)Cc2ccccc2)C1c1csc2ccccc12` (centres unmarked) [Example C52, 1-(5-acetyl-4-(benzo[b]thiophen-3-yl)-2,6-dimethyl-1,4-dihydropyridin-3-yl)-2-phenylethan-1-one] were, in that order, 100 to 1000 nM and 100 to 1000 nM.
Turning to `CC(=O)C1=C(C)NC(C2CC2)=C(C(=O)OCc2ccncc2)C1c1csc2ccccc12` (centres unmarked) [Example J32, Pyridin-4-ylmethyl 5-acetyl-4-(benzo[b]thiophen-3-yl)-2-cyclopropyl-6-methyl-1,4-dihydropyridine-3-carboxylate], the IC50 at human androgen receptor is not below 1000 nM. The Kb at AR-Receptor was in the range of 100 to 1000 nM.
The like results for `CC(=O)C1=C(C)NC(C)=C(C(=O)OCc2ccncc2)C1c1csc2c(Br)cccc12` (centres unmarked) [Example J33, Pyridin-4-ylmethyl 5-acetyl-4-(7-bromobenzo[b]thiophen-3-yl)-2,6-dimethyl-1,4-dihydropyridine-3-carboxylate] were, in that order, 100 to 1000 nM and 100 to 1000 nM.
